For 19 compounds, IC50 results are on record in US20230295109A1, “PYRIDINONE COMPOUNDS FOR THE TREATMENT OF AUTOIMMUNE DISEASE” (F. Hoffmann-La Roche AG, priority 2020, published 2023).

In the assay the target is T1, human TLR7 (Homo sapiens, UniProt Q9NYK1).
T1 construct: host or cells: HEK293 (HEK-Blue hTLR7)
T1 sequence (Q9NYK1 27-1049): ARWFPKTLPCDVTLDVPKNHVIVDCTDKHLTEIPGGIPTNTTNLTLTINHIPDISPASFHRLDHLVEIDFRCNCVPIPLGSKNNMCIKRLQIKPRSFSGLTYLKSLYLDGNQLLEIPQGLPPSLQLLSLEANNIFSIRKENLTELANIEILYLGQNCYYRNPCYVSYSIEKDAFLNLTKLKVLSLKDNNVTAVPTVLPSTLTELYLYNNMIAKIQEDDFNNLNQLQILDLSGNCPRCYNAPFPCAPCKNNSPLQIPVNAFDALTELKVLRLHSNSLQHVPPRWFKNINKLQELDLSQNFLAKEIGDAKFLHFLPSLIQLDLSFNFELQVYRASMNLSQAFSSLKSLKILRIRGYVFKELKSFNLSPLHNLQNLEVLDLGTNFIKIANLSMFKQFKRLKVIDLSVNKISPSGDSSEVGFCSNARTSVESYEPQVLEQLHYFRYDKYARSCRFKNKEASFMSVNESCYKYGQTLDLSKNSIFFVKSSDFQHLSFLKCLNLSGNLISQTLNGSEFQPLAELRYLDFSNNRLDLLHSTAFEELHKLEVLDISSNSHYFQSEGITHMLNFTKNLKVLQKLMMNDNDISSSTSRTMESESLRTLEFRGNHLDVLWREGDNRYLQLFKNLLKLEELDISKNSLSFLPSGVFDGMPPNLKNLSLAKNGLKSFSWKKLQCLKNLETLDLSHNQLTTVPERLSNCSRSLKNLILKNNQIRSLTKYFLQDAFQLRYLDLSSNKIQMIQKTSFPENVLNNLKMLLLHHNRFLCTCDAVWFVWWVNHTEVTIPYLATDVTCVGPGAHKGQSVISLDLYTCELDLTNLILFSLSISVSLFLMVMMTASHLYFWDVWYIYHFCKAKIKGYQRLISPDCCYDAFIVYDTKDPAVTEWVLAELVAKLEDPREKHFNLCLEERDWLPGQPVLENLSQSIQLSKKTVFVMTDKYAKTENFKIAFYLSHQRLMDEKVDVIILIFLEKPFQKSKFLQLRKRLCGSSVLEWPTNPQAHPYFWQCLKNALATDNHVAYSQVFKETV
The assay is described as follows: HEK293-Blue-hTLR-7 cells assay. The format is cell-based. The note with it: HEK293-Blue-hTLR7 cells, R848 stimulation, 20 hrs, SEAP reporter; read-out: HEK/hTLR7 IC50. The text has this: A stable HEK293-Blue-hTLR-7 cell line was purchased from InvivoGen (Cat.#: hkb-htlr7, San Diego, California, USA). These cells were originally designed for studying the stimulation of human TLR7 by monitoring the activation of NF-κB. A SEAP (secreted embryonic alkaline phosphatase) reporter gene was placed under the control of the IFN-β minimal promoter fused to five NF-κB and AP-1-binding sites. The SEAP was induced by activating NF-κB and AP-1 via stimulating HEK-Blue hTLR7 cells with TLR7 ligands. Therefore the reporter expression was declined by TLR7 antagonist under the stimulation of a ligand, such as R848 (Resiquimod), for incubation of 20 hrs. The cell culture supernatant SEAP reporter activity was determined using QUANTI-Blue™ kit (Cat.#: rep-qb1, Invivogen, San Diego, Ca, USA) at a wavelength of 640 nm, a detection medium that turns purple or blue in the presence of alkaline phosphatase.
HEK293-Blue-hTLR7 cells were incubated at a density of 250,000~450,000 cells/mL in a volume of 170 µL in a 96-well plate in Dulbecco’s Modified Eagle’s medium (DMEM) containing 4.5 g/L glucose, 50 U/mL penicillin, […], […], 2 mM L-glutamine, 10% (v/v) heat-inactivated fetal bovine serum with addition of 20 µL test compound in a serial dilution in the presence of final DMSO at 1% and 10 µL of 20uM R848 in above DMEM, perform incubation under 37° C. in a CO2 incubator for 20 hrs. Then 20 µL of the supernatant from each well was incubated with 180 µL Quanti-blue substrate solution at 37° C. for 2 hrs and the absorbance was read at 620 \~655 nm using a spectrophotometer. The signaling pathway that TLR7 activation leads to downstream NF-κB activation has been widely accepted, and therefore similar reporter assay was modified for evaluating TLR7 antagonist.
In the case of `CCc1nc(N2CCN(Cc3cnc(N4CC(C)(N)C4)nc3)CC2)ccc1-c1cc(C)c(=O)n(C)c1` [Example 3, 5-[6-[4-[[2-(3-amino-3-methyl-azetidin-1-yl)pyrimidin-5-yl]methyl]piperazin-1-yl]-2-ethyl-3-pyridyl]-1,3-dimethyl-pyridin-2-one], the IC50 was 14 nM. Next, `CCc1nc(N2CCN3CCN(c4cnc(N5CC6(CNCCO6)C5)nc4)CC3C2)ccc1-c1cc(C)c(=O)n(C)c1` (stereo not shown) [Example 19, 5-[2-ethyl-6-[2-[2-(5-oxa-2,8-diazaspiro[3.5]nonan-2-yl)pyrimidin-5-yl]-3,4,6,7,9,9a-hexahydro-1H-pyrazino[1,2-a]pyrazin-8-yl]-3-pyridyl]-1,3-dimethyl-pyridin-2-one]: 3 nM; `CCc1nc(N2CCN(Cc3cnc(N4CCOC[C@@H](N)C4)nc3)CC2)ccc1-c1cc(C)c(=O)n(C)c1` [Example 4, 5-[6-[4-[[2-[(6S)-6-amino-1,4-oxazepan-4-yl]pyrimidin-5-yl]methyl]piperazin-1-yl]-2-ethyl-3-pyridyl]-1,3-dimethyl-pyridin-2-one]: 24 nM; `Cc1cc(-c2ccc(N3CCN(Cc4ccc(N5CCNCC5)cc4)CC3)nc2C(F)F)cn(C)c1=O` [Example 17, 5-[2-(difluoromethyl)-6-[4-[(4-piperazin-1-ylphenyl)methyl]piperazin-1-yl]-3-pyridyl]-1,3-dimethyl-pyridin-2-one]: 33 nM. With `Cc1cc(-c2ccc(N3CCN(Cc4ccc(N5CCNCC5)nc4)CC3)nc2C(C)C)cn(C)c1=O` [Example 11, 5-[2-isopropyl-6-[4-[(6-piperazin-1-yl-3-pyridyl)methyl]piperazin-1-yl]-3-pyridyl]-1,3-dimethyl-pyridin-2-one], the IC50 came to 8 nM. As to `CCc1nc(N2CCN(Cc3ccc(N4CC5(CNCCO5)C4)nc3)CC2)ccc1-c1cc(C)c(=O)n(C)c1` [Example 2, 5-[2-ethyl-6-[4-[[6-(5-oxa-2,8-diazaspiro[3.5]nonan-2-yl)-3 pyridyl]methyl]piperazin-1-yl]-3-pyridyl]-1,3-dimethyl-pyridin-2-one], the IC50 stood at 10 nM. The value for `Cc1cc(-c2ccc(N3CCN(Cc4ncc(N5CCNCC5)cn4)CC3)nc2C(C)C)cn(C)c1=O` [Example 12, 5-[2-isopropyl-6-[4-[(5-piperazin-1-ylpyrimidin-2-yl)methyl]piperazin-1-yl]-3-pyridyl]-1,3-dimethyl-pyridin-2-one] was 8 nM; that for `Cc1cc(-c2ccc(N3CCN(Cc4cnc(N5CC6(CNCCO6)C5)nc4)CC3)nc2C(C)C)cn(C)c1=O` [Example 6, 5-[2-isopropyl-6-[4-[[2-(5-oxa-2,8-diazaspiro[3.5]nonan-2-yl)pyrimidin-5-yl]methyl]piperazin-1-yl]-3-pyridyl]-1,3-dimethyl-pyridin-2-one] was 5 nM; that for `Cc1cc(-c2ccc(N3CCC(N4CCNCC4)CC3)nc2C(C)C)cn(C)c1=O` [Example 18, 5-[2-isopropyl-6-(4-piperazin-1-yl-1-piperidyl)-3-pyridyl]-1,3-dimethyl-pyridin-2-one] was 5 nM. The value for `Cc1cc(-c2ccc(N3CCN4CCN(c5ccc(N6CCNCC6)nc5)CC4C3)nc2C(C)C)cn(C)c1=O` (stereo not shown) [Example 16, 5-[2-isopropyl-6-[8-(6-piperazin-1-yl-3-pyridyl)-3,4,6,7,9,9a-hexahydro-1H-pyrazino[1,2-a]pyrazin-2-yl]-3-pyridyl]-1,3-dimethyl-pyridin-2-one] was 2 nM. Next, `Cc1cc(-c2ccc(N3CCN(Cc4ccc(N5CCNCC5)cc4)CC3)nc2C(C)C)cn(C)c1=O` [Example 13, 5-[2-isopropyl-6-[4-[(4-piperazin-1-ylphenyl)methyl]piperazin-1-yl]-3-pyridyl]-1,3-dimethyl-pyridin-2-one]: 12 nM; `Cc1cc(-c2ccc(N3CCN(Cc4cccc(N5CCNCC5)c4)CC3)nc2C(C)C)cn(C)c1=O` [Example 14, 5-[2-isopropyl-6-[4-[(3-piperazin-1-ylphenyl)methyl]piperazin-1-yl]-3-pyridyl]-1,3-dimethyl-pyridin-2-one]: 18 nM; `Cc1cc(-c2ccc(N3CCN(Cc4ccc(N5CCNCC5)cn4)CC3)nc2C(C)C)cn(C)c1=O` [Example 7, 5-[2-isopropyl-6-[4-[(5-piperazin-1-yl-2-pyridyl)methyl]piperazin-1-yl]-3-pyridyl]-1,3-dimethyl-pyridin-2-one]: 5 nM. As to `Cc1cc(-c2ccc(N3CCN(c4ccc5c(n4)CCNC5)CC3)nc2C(C)C)cn(C)c1=O` [Example 15, 5-[2-isopropyl-6-[4-(5,6,7,8-tetrahydro-1,6-naphthyridin-2-yl)piperazin-1-yl]-3-pyridyl]-1,3-dimethyl-pyridin-2-one], the IC50 is 10 nM.

With `CCc1nc(N2CCN(Cc3ccc(N4CCNCC4)cc3)CC2)ccc1-c1cc(C)c(=O)n(C)c1` [Example 5, 5-[2-ethyl-6-[4-[(4-piperazin-1-ylphenyl)methyl]piperazin-1-yl]-3-pyridyl]-1,3-dimethyl-pyridin-2-one], the IC50 was determined as 6 nM.

In the case of `Cc1cc(-c2ccc(N3CCN(Cc4cnc(N5CC(C)(N)C5)nc4)CC3)nc2C(C)C)cn(C)c1=O` [Example 10, 5-[6-[4-[[2-(3-amino-3-methyl-azetidin-1-yl)pyrimidin-5-yl]methyl]piperazin-1-yl]-2-isopropyl-3-pyridyl]-1,3-dimethyl-pyridin-2-one], the IC50 is 7 nM. For `CCc1nc(N2CCN(Cc3cnc(N4CC5(CNCCO5)C4)nc3)CC2)ccc1-c1cc(C)c(=O)n(C)c1` [Example 1, 5-[2-ethyl-6-[4-[[2-(5-oxa-2,8-diazaspiro[3.5]nonan-2-yl)pyrimidin-5-yl]methyl]piperazin-1-yl]-3-pyridyl]-1,3-dimethyl-pyridin-2-one], the IC50 was 9 nM. The value for `Cc1cc(-c2ccc(N3CCN(Cc4cnc(N5CCNCC5)cn4)CC3)nc2C(C)C)cn(C)c1=O` [Example 8, 5-[2-isopropyl-6-[4-[(5-piperazin-1-ylpyrazin-2-yl)methyl]piperazin-1-yl]-3-pyridyl]-1,3-dimethyl-pyridin-2-one] was 5 nM; that for `Cc1cc(-c2ccc(N3CCN(Cc4cnc(N5CCNCC5)nc4)CC3)nc2C(C)C)cn(C)c1=O` [Example 9, 5-[2-isopropyl-6-[4-[(2-piperazin-1-ylpyrimidin-5-yl)methyl]piperazin-1-yl]-3-pyridyl]-1,3-dimethyl-pyridin-2-one] was 7 nM.
